Experimental data reported in US9880171B2, “iASPP phosphorylation and metastatic potential” (LUDWIG INSTITUTE FOR CANCER RESEARCH LTD., priority 2012, dated 2018).

B1: iASPP(1-240): purified recombinant N-terminal iASPP fragment, amino acids 1-240 of SEQ ID NO: 2, GST tag (protein, listed as Homo sapiens)
chain: MDSEAFQSARDFLDMNFQSLAMKHMDLKQMELDTAAAKVDELTKQLESLWSDSPAPPGPQAGPPSRPPRYSSSSIPEPFGSRGSPRKAATDGADTPFGRSESAPTLHPYSPLSPKGRPSSPRTPLYLQPDAYGSLDRATSPRPRAFDGAGSSLGRAPSPRPGPGPLRQQGPPTPFDFLGRAGSPRGSPLAEGPQAFFPERGPSPRPPATAYDAPASAFGSSLLGSGGSAFAPPLRAQDDL
modifications: GST tag
B2: iASPP(1-240)S84D/S113D: iASPP phosphor-mimic mutant of the N-terminal fragment 1-240 (protein, listed as Homo sapiens)
chain: MDSEAFQSARDFLDMNFQSLAMKHMDLKQMELDTAAAKVDELTKQLESLWSDSPAPPGPQAGPPSRPPRYSSSSIPEPFGSRGDPRKAATDGADTPFGRSESAPTLHPYSPLDPKGRPSSPRTPLYLQPDAYGSLDRATSPRPRAFDGAGSSLGRAPSPRPGPGPLRQQGPPTPFDFLGRAGSPRGSPLAEGPQAFFPERGPSPRPPATAYDAPASAFGSSLLGSGGSAFAPPLRAQDDL

Tests used:
Type in all cases: cell-based, human
[1] = system: slow-migrating iASPP in H1299 cells; experiment: induction of slow-migrating iASPP by chemotherapeutic agents in H1299 cells (WB); details: H1299, overnight treatment (oxidative stress inducers 1-3 h; EDTA 4 mM 1 hour), antibody LX49.3
Method: FIG. 3. […] H1299 cells were treated overnight with the indicated concentrations of mitosis-arrest drugs nocodazole, colchicine and taxol, DNA damaging drugs, or oxidative stress inducers (1-3 h). Total lysate was prepared in UREA buffer, and iASPP expression patterns were determined using antibody LX49.3. […] Mitotic-arrest drugs were applied to H1299 cells to induce iASPP mobility shift. Floating and adherent cells were collected, and iASPP expression pattern was determined by western blotting (WB). C. […] Left panel, cells in mitosis (floating) and interphase (adherent) were collected by mitotic shake-off, and iASPP expression pattern was determined by WB. Right panel, H1299 cells after Taxol treatment, or mitotic shake-off were immunofluorescence stained using antibody LX49.3. In mitotic shake-off experiment, mitotic shake-off cells were cytospun to slides; the remaining adherent cells after shaking were scraped off and used as interphase control. […] Melanoma cells were treated with nocodazole overnight and iASPP expression patterns from total cell lysate was determined by WB.
FIG. 4. A. Floating and adherent H1299 cells separately collected by mitotic shake-off (FIG. 3C) were stained with propidium iodide (PI), followed by FACS analysis. […] B. H1299 cells were subjected to treatment of 10 μM nocodazole for 24 hours (Nocodazole), on ice for 30 minutes (Cold shock), or 4 mM EDTA for 1 hour (EDTA). Left panel: iASPP expression pattern was analysed by immunoblotting. Right panel: phase contrast images were taken before collection of the cells for WB analysis. Bar=20 μm.
For WB, cells were lysed in buffer containing 8 M urea, 1 M thiourea, 0.5% CHAPS, 50 mM DTT, and 24 mM spermine. A total of 40 μg of protein extract was loaded per lane into SDS-polyacrylamide gels. Gels were transferred onto nitrocellulose membrane (Protran) and the resulting blots incubated first with primary antibody overnight at 4° C. and then with the appropriate secondary horseradish peroxidize-conjugated antibody (Dako). The results were visualized by enhanced chemiluminescent detection (Amersham Biosciences) using X-ray film (Fujifilm). For cell lysate immunoprecipitation, cells were dissolved in NP40 buffer (50 mM Tris-HCl pH 8.0, 150 mM NaCl, 1% NP-40) with protease inhibitor cocktail mix (Roche Diagnostics). Cells were further thoroughly broken by ultrasonication, followed by spinning for 1 hour. Achieved suspension was adjusted to 1-2 mg/ml using NP40 buffer and incubated with 20 μl nickel beads, glutathione beads, or protein A beads (with 2 μg required antibody) for 2 h at room temperature. The beads were washed for four times with NP40 buffer, boiled for 5 min in Laemmli sample buffer, and applied for Western blotting. For pure protein immunoprecipitation, 5-10 μg purified proteins were mixed in NP40 buffer with 1 mg/ml BSA for 2 h at room temperature.
As mitotic cells often detach from the tissue culture dish, floating cells were separated from adherent cells after the treatment of Nocodozole, Taxol and Colchicine.

[2] = system: iASPP modification in H1299 cells; experiment: nocodazole-induced iASPP modification in H1299 cells, G2/M kinase inhibitor panel (immunoblotting); details: 2-10 μM, 10 μM nocodazole overnight
Method: FIG. 12. […] FIG. 12A. […] FIG. 12B. […] FIG. 12C.
FIG. 13. FIG. 13A. […] FIG. 13B.
FIG. 20. […] FIG. 20A. […] Bar=20 μm.
For WB, cells were lysed in buffer containing 8 M urea, 1 M thiourea, 0.5% CHAPS, 50 mM DTT, and 24 mM spermine. A total of 40 μg of protein extract was loaded per lane into SDS-polyacrylamide gels. Gels were transferred onto nitrocellulose membrane (Protran) and the resulting blots incubated first with primary antibody overnight at 4° C. and then with the appropriate secondary horseradish peroxidize-conjugated antibody (Dako). The results were visualized by enhanced chemiluminescent detection (Amersham Biosciences) using X-ray film (Fujifilm).

[3] = system: nuclear entry of FITC labeled iASPP(625-828); experiment: in vitro nuclear import assay in digitonin permeabilized H1299 cells; details: for nuclear entry of FITC labeled iASPP(625-828): pre-incubation with 0-1 mg/ml non-labeled protein, 2 hours
Method: FIG. 7. S84/S113 phosphorylation of iASPP prevents N- and C-terminal self-interaction and promotes iASPP nuclear localization. A. N- and C-terminal iASPP self-interacts, and iASPP(1-240 of SEQ ID NO: 2)S84D/S113D fails to interact with C-terminal iASPP in vitro. Upper panel: 10 μg/ml purified GST-tagged iASPP (1-240 of SEQ ID NO: 2) or iASPP (249-482 of SEQ ID NO: 2) were incubated with 10 μg/ml purified 6*His-tagged iASPP (625-828 of SEQ ID NO: 2) or ASPP2 (905-1128 of SEQ ID NO: 2) in NP40 buffer for 2 hours. iASPP (1-240 of SEQ ID NO: 2) and iASPP (249-482 of SEQ ID NO: 2) were pulled down by glutathione beads. Bound iASPP (625-828 of SEQ ID NO: 2) and ASPP2 (905-1128 of SEQ ID NO: 2) were determined using anti-His antibodies. Lower panel: 10 μg/ml purified iASPP (1-240 of SEQ ID BO: 2)-GST mutants were incubated with 10 μg/ml mixture of iASPP (625-828 of SEQ ID NO: 2)-His and ASPP2 (905-1128 of SEQ ID NO: 2)-His in NP40 buffer for 2 hours. Interaction was determined as above. […] Cells were suspended in NP40 buffer, and interactions between overexpressed iASPP(1-478 of SEQ ID NO: 2)-V5 and purified iASPP(625-828 of SEQ ID NO: 2)-His were determined by co-immunoprecipitation. […] Cells were suspended in NP40 buffer, and interaction between endogenous iASPP and iASPP (1-240 of SEQ ID NO: 2)-GST was determined by co-immunoprecipitation. […] Upper right panel: H1299 cells were treated with or without nocodazole and iASPP mobility shift were determined in non-denaturing or denaturing WB. […] After 4 washes, the interaction between them was determined by co-immunoprecipitation using anti-GST and anti-V5 antibodies. […] Nuclear iASPP (625-828 of SEQ ID NO: 2)-FITC was determined by direct FITC fluorescence. iASPP(1-240)S84D/S113D and ASPP2(905-1128 of SEQ ID NO: 2) were used as control. […]
Purified proteins were labeled with FITC according to protocol from protein label kit (F-6434, Invitrogen). […] The cellular localization of the substrate was determined by direct fluorescence observation under confocol microscope. […]

Molecule	induction of slow-migrating iASPP isoform [1]	other results
N.N.[Cl][Pt][Cl] [Cisplatin]	did not result in increased slow-migrating iASPP isoform expression	–
COc1cc2c(c(OC)c1OC)-c1ccc(OC)c(=O)cc1[C@@H](NC(C)=O)CC2 [Colchicine]	induced	–
COc1cccc2c1C(=O)c1c(O)c3c(c(O)c1C2=O)C[C@@](O)(C(=O)CO)C[C@@H]3O[C@H]1C[C@H](N)[C@H](O)[C@H](C)O1 [Doxorubicin]	did not result in increased slow-migrating iASPP isoform expression	–
O=C(O)CN(CCN(CC(=O)O)CC(=O)O)CC(=O)O [EDTA]	failed to affect iASPP mobility	–
CN[C@@H]1C[C@H]2O[C@@](C)([C@@H]1OC)n1c3ccccc3c3c4c(c5c6ccccc6n2c5c31)C(=O)NC4 [Staurosporine]	did not result in increased slow-migrating iASPP isoform expression	–
CC(=O)O[C@H]1C(=O)[C@@]2(C)[C@H]([C@H](OC(=O)c3ccccc3)[C@]3(O)C[C@H](OC(=O)[C@H](O)[C@@H](NC(=O)c4ccccc4)c4ccccc4)C(C)=C1C3(C)C)[C@]1(OC(C)=O)CO[C@@H]1C[C@@H]2O [Taxol]	induced	–
OO [hydrogen peroxide]	did not result in increased slow-migrating iASPP isoform expression	–
CC[C@H](CO)Nc1nc(NCc2ccccc2)c2ncn(C(C)C)c2n1 [roscovitine]	–	prevention of nocodazole-induced iASPP modification ([2]; panel of 15 G2/M kinase inhibitors): only weakly affected iASPP modification; prevention of nocodazole-induced iASPP modification ([2]; panel of 18 G2/M kinase inhibitors): failed to affect iASPP modification
B1	–	nuclear entry of FITC labeled iASPP(625-828) [3]: effectively prevented the nuclear entry; nuclear entry of ASPP2(905-1128) ([3]; pre-incubation with non-labeled protein): no impact on the nuclear entry of ASPP2(905-1128)
B2	–	nuclear entry of FITC labeled iASPP(625-828) [3]: failed to have any impact
